Patent publication US20130324582A1, “METHODS AND COMPOSITIONS FOR REDUCING FUNGAL INFESTATION AND IMPROVING GRASS QUALITY” (BAYER CROPSCIENCE LP, priority 2012, published 2013)

System: Dollar Spot
Test: Dollar Spot infestation on Bentgrass Green (field application by knapsack sprayer)
Assay type: in vivo, Sclerotinia homoeocarpa
Conditions: applied at 0, 6, 14 days
Text: Example 1 sets forth the Dollar Spot infestation on Bentgrass Green.
A suspension concentrate composition of Compound I-1 as defined herein with and without the addition of Synergen® KN was applied to Bentgrass Green at 0, 6, and 14 days using a knapsack sprayer. Synergen® KN contains a blend of phosphate and ethoxylated alcohol compounds, such as a blend of poly(oxy-1,2-ethanediyl), α-isotridecyl-ω-hydroxy-, phosphate and ethoxylated C12-C16 alcohols.
In Table 1, untreated Bentgrass Green (1) was compared to a composition including Compound I-1 at 440 grams/hectacre (“GA/HA”) (2), a composition including Compound I-1 at 440 GA/HA+Synergen® KN at 1% by volume (3), a composition including Compound I-1 at 880 GA/HA (4), a composition including Compound I-1 at 880 GA/HA+Synergen® KN at 1% by volume (5), a composition including Compound I-1 at 1320 GA/HA (6), and composition including a Compound I-1 at 1320 GA/HA+Synergen® KN at 1% by volume (7). As set forth in Table 1, ratings were evaluated at −1, 6, 13, 22, 28, 35, and 48 days.

## Cn1c(=O)c2sc3c(=O)n(C)c(=O)c3sc2c1=O [Compound I-1, 2,6-dimethyl-1H,5H-[1,4]dithiino[2,3-c:5,6-c′]dipyrrole-1,3,5,7(2H,6H)-tetrone]
440 GA/HA, rating Day 6, adjuvant where present 1% by volume
  Percentage of Dollar Spot: 7.5%
440 GA/HA, rating Day 13, adjuvant where present 1% by volume
  Percentage of Dollar Spot: 10.8%
440 GA/HA, rating Day 22, adjuvant where present 1% by volume
  Percentage of Dollar Spot: 12.8%
440 GA/HA, rating Day 28, adjuvant where present 1% by volume
  Percentage of Dollar Spot: 14.5%
440 GA/HA, rating Day 35, adjuvant where present 1% by volume
  Percentage of Dollar Spot: 19.5%
440 GA/HA, rating Day 48, adjuvant where present 1% by volume
  Percentage of Dollar Spot: 22.8%
440 GA/HA, rating Day −1, adjuvant where present 1% by volume
  Percentage of Dollar Spot: 8.3%
880 GA/HA, rating Day 6, adjuvant where present 1% by volume
  Percentage of Dollar Spot: 7.8%
880 GA/HA, rating Day 13, adjuvant where present 1% by volume
  Percentage of Dollar Spot: 10.5%
880 GA/HA, rating Day 22, adjuvant where present 1% by volume
  Percentage of Dollar Spot: 11.3%
880 GA/HA, rating Day 28, adjuvant where present 1% by volume
  Percentage of Dollar Spot: 12.5%
880 GA/HA, rating Day 35, adjuvant where present 1% by volume
  Percentage of Dollar Spot: 17%
880 GA/HA, rating Day 48, adjuvant where present 1% by volume
  Percentage of Dollar Spot: 20.8%
880 GA/HA, rating Day −1, adjuvant where present 1% by volume
  Percentage of Dollar Spot: 8.3%
1320 GA/HA, rating Day 6, adjuvant where present 1% by volume
  Percentage of Dollar Spot: 8.3%
1320 GA/HA, rating Day 13, adjuvant where present 1% by volume
  Percentage of Dollar Spot: 10.5%
1320 GA/HA, rating Day 22, adjuvant where present 1% by volume
  Percentage of Dollar Spot: 12.8%
1320 GA/HA, rating Day 28, adjuvant where present 1% by volume
  Percentage of Dollar Spot: 14.8%
1320 GA/HA, rating Day 35, adjuvant where present 1% by volume
  Percentage of Dollar Spot: 17%
1320 GA/HA, rating Day 48, adjuvant where present 1% by volume
  Percentage of Dollar Spot: 20%
1320 GA/HA, rating Day −1, adjuvant where present 1% by volume
  Percentage of Dollar Spot: 9%
